Experimental data: paper PMC8353886 (ACS Medicinal Chemistry Letters, 2021)

How the values were obtained:
[1] = tested on: SARS-CoV-2; details: in words; cited from earlier work
[2] = tested on: MERS; details: cited from earlier work
[3] = tested on: SARS-CoV-1; details: cited from earlier work
[4] = tested on: SARS-CoV-2 Spike pseudotyped particle (PP); assay: microbe, parasite or virus in culture; type: cell-based; details: Severe acute respiratory syndrome coronavirus 2, read-out: SARS-CoV-2 PP IC50

Row | Structure (SMILES) | inhibitory activity against SARS-CoV-2 in the PP entry assay [1] | inhibitory activity against MERS in the PP entry assay [2] | inhibitory activity against SARS-CoV-1 in the PP entry assay [3] | IC50 [4] [µM]
1 | CN1CCN(C(c2ccccc2)c2ccc(Cl)cc2)CC1 (stereo not shown) [CCZ, chlorcyclizine] | inhibitory activities | inhibitory activities | inhibitory activities | 
2 | CN1[C@@H]2CC[C@H]1C[C@@H](OC(c1ccccc1)c1ccc(Cl)cc1)C2 (stereo partly shown) [Clobenztropine] |  |  |  | 12.6
